Assay results from US20250382277A1, “SMALL MOLECULE INHIBITORS OF DYRK/CLK AND USES THEREOF” (Arizona Board of Regents on Behalf of the University of …, priority 2022, published 2025).

Assays:
DYRK1A = DYRK1A (Homo sapiens, UniProt Q13627); experiment: biochemical
Experimental: KDs were obtained from Eurofins. The KdELECT Kinase Assay Panel enables quantitated compound binding affinity against any kinase assay. Inhibitor binding constants (Kd values) are calculated from duplicate 11-point dose-response curves. Measurements are made under optimized conditions that generate true thermodynamic Kd values which facilitate direct comparison of inhibitor affinity across kinases.

WNT signaling = experiment: WNT reporter assay (TopGFP reporter); format: cell-based; conditions: Human Colonic Epithelial Cells (HCEC) with TopGFP reporter, stimulated with 10 μM CHIR99021, 24 hours
From the text: KDs were obtained from Eurofins.

Compound | Kd (DYRK1A) [nM] | EC50 (WNT signaling) [nM]
Nc1cc(-c2ccc3ncnc(-c4ccc(N5CCOCC5)c(F)c4)c3c2)ccn1 [Compound 1, 4-(4-(3-fluoro-4-morpholinophenyl)quinazolin-6-yl)pyridin-2-amine] | < 100 | 100 to 1000
Nc1cc(-c2ccc3ncnc(-c4cc(F)cc(N5CCOCC5)c4)c3c2)ccn1 [Compound 5, 4-(4-(3-fluoro-5-morpholinophenyl)quinazolin-6-yl)pyridin-2-amine] | < 100 | –
Nc1cc(-c2ccc3ncnc(-c4ccc(N5CCS(=O)(=O)CC5)cc4)c3c2)ccn1 [Compound 6, 4-(4-(6-(2-aminopyridin-4-yl)quinazolin-4-yl)phenyl)thiomorpholine 1,1-dioxide] | < 100 | –
CN1CCN(c2ccc(-c3ncnc4ccc(-c5ccnc(N)c5)cc34)cc2)CC1 [Compound 7, 4-(4-(4-(4-methylpiperazin-1-yl)phenyl)quinazolin-6-yl)pyridin-2-amine] | < 100 | –
Nc1cc(-c2ccc3ncnc(-c4ccc(N5CCOCC5)nc4)c3c2)ccn1 [Compound 10, 4-(4-(6-morpholinopyridin-3-yl)quinazolin-6-yl)pyridin-2-amine] | < 100 | –
Nc1cc(-c2ccc3nccc(-c4cnc(N5CCOCC5)c(F)c4)c3c2)ccn1 [Compound 13, 4-(4-(5-fluoro-6-morpholinopyridin-3-yl)quinolin-6-yl)pyridin-2-amine] | – | 100 to 1000
Nc1cc(-c2ccc3ncnc(-c4ccc(CN5CCOCC5)cc4)c3c2)ccn1 [Compound 18, 4-(4-(4-(morpholinomethyl)phenyl)quinazolin-6-yl)pyridin-2-amine] | > 1000 | –

Further lines, results first:

Kd (DYRK1A) [nM] | EC50 (WNT signaling) [nM] | Compound
– | < 100 | CC(=O)N1CCN(c2ccc(-c3ncnc4ccc(-c5cn[nH]c5)cc34)cc2)CC1 [Compound 37, 1-(4-(4-(6-(1H-pyrazol-4-yl)quinazolin-4-yl)phenyl)piperazin-1-yl)ethan-1-one]
– | 100 to 1000 | Nc1cc(-c2ccc3ncnc(-c4ccc(N5CC6(C5)CN(C5COC5)C6)c(F)c4)c3c2)ccn1 [Compound 57, 4-(4-(3-fluoro-4-(6-(oxetan-3-yl)-2,6-diazaspiro[3.3]heptan-2-yl)phenyl)quinazolin-6-yl)pyridin-2-amine]
– | < 100 | CC(=O)N1CC2(C1)CN(c1ccc(-c3ncnc4ccc(-c5ccnc(N)c5)cc34)cc1F)C2 [Compound 58, 1-(6-(4-(6-(2-aminopyridin-4-yl)quinazolin-4-yl)-2-fluorophenyl)-2,6-diazaspiro[3.3]heptan-2-yl)ethan-1-one]
– | < 100 | CS(=O)(=O)N1CCN(c2ccc(-c3ncnc4ccc(-c5ccnc(N)c5)cc34)cc2Cl)CC1 [Compound 59, 4-(4-(3-chloro-4-(4-(methylsulfonyl)piperazin-1-yl)phenyl)quinazolin-6-yl)pyridin-2-amine]
– | > 1000 | CN[C@H]1CCN(c2ccc(-c3ncnc4ccc(-c5ccnc(N)c5)cc34)cc2F)C1 [Compound 60, (S)-4-(4-(3-fluoro-4-(3-(methylamino)pyrrolidin-1-yl)phenyl)quinazolin-6-yl)pyridin-2-amine]
– | 100 to 1000 | Cc1cc(-c2ncnc3ccc(-c4ccnc(N)c4)cc23)ccc1N1CCN(C)CC1 [Compound 61, 4-(4-(3-methyl-4-(4-methylpiperazin-1-yl)phenyl)quinazolin-6-yl)pyridin-2-amine]
– | < 100 | CN1CCN(c2ccc(-c3ncnc4ccc(-c5ccnc(N)c5)cc34)cc2Cl)CC1 [Compound 62, 4-(4-(3-chloro-4-(4-methylpiperazin-1-yl)phenyl)quinazolin-6-yl)pyridin-2-amine]
– | < 100 | CS(=O)(=O)N1CCN(c2ccc(-c3ncnc4ccc(-c5ccnc(N)c5)cc34)cc2C(F)(F)F)CC1 [Compound 63, 4-(4-(4-(4-(methylsulfonyl)piperazin-1-yl)-3-(trifluoromethyl)phenyl)quinazolin-6-yl)pyridin-2-amine]
– | < 100 | Nc1cc(-c2ccc3ncnc(-c4ccc(N5CCN(CC6COC6)CC5)c(F)c4)c3c2)ccn1 [Compound 64, 4-(4-(3-fluoro-4-(4-(oxetan-3-ylmethyl)piperazin-1-yl)phenyl)quinazolin-6-yl)pyridin-2-amine]
